Laboratory results published in ChEMBL document CHEMBL5512607, “Journey of Von Hippel-Lindau (VHL) E3 ligase in PROTACs design: From VHL ligands to VHL-based degraders” (Eur J Med Chem, 2024).

How the values were obtained:
[1] = molecular target: T1, von Hippel-Lindau disease tumor suppressor (Homo sapiens, UniProt P40337); assay: Binding affinity to VHL (unknown origin) assessed as dissociation constant by fluorescence polarization assay
[2] = molecular target: von Hippel-Lindau disease tumor suppressor/Bromodomain-containing protein 4 (Homo sapiens, UniProt O60885+P40337); assay: PROTAC activity at human VHL/BRD4 in human HeLa cells assessed as degradation of BRD4 incubated for 24 hrs by Western blot analysis; type: cell-based
[3] = tested on: von Hippel-Lindau disease tumor suppressor/Mitogen-activated protein kinase 14; assay: PROTAC activity at VHL/N-terminal His-tagged human p38alpha expressed in […] assessed as maximal degradation relative to control
[4] = PROTAC activity at VHL/N-terminal His-tagged human p38alpha expressed in […] assessed as p38alpha degradation
[5] = molecular target: T1, von Hippel-Lindau disease tumor suppressor; assay: Binding affinity to NanoLuc-fused VHL (unknown origin) transfected in live HEK293 cells using NanoGlo as substrate assessed as dissociation constant incubated for 1 hrs by tracer based NanoBRET assay; type: cell-based
[6] = molecular target: T1, von Hippel-Lindau disease tumor suppressor; assay: Inhibition of NanoLuc-fused VHL (unknown origin) transfected in live HEK293 cells using NanoGlo as substrate incubated for 1 hrs by tracer based NanoBRET assay; type: cell-based
[7] = molecular target: T2, von Hippel-Lindau disease tumor suppressor/Estrogen receptor (Homo sapiens, UniProt P03372+P40337); assay: PROTAC activity at VHL E3 ligase/ERalpha in human T47D cells assessed as maximal degradation of ERalpha protein level at 10.3 nM by Western blot analysis relative to control; type: cell-based
Target sequence in this assay (P03372 whole entry, looked up): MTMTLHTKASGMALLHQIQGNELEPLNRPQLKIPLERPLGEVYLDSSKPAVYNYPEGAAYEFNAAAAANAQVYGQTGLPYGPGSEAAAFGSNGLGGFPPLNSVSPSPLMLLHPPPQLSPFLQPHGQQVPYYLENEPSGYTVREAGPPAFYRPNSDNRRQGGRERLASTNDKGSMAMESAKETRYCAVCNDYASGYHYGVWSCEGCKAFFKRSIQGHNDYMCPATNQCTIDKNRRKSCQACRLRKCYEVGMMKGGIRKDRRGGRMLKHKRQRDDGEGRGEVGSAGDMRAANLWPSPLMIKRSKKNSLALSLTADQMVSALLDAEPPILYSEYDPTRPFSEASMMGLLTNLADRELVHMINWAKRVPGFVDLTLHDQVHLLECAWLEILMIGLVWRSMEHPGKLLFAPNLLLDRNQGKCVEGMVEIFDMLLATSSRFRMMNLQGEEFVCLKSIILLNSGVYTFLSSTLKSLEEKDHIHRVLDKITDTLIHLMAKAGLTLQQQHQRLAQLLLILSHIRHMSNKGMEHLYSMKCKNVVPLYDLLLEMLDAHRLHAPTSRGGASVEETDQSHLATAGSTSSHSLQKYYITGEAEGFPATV
Target sequence in this assay (P40337 whole entry, looked up): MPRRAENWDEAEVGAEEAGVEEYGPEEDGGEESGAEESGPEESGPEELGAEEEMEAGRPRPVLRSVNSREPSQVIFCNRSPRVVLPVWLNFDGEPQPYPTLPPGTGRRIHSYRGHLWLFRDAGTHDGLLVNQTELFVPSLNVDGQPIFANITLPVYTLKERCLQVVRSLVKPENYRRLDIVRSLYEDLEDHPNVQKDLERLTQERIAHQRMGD

[8] = molecular target: T2, von Hippel-Lindau disease tumor suppressor/Estrogen receptor; assay: PROTAC activity at VHL E3 ligase/ERalpha in human T47D cells assessed as maximal degradation of ERalpha protein level at 7.7 nM by Western blot analysis relative to control; type: cell-based
Target sequence in this assay (P03372 whole entry, looked up): as the sequence (P03372 whole entry, looked up) above
Target sequence in this assay (P40337 whole entry, looked up): as the sequence (P40337 whole entry, looked up) above

[9] = molecular target: T2, von Hippel-Lindau disease tumor suppressor/Estrogen receptor; assay: PROTAC activity at VHL E3 ligase/ERalpha in human MCF7 cells assessed as reduction in ERalpha protein level by Western blot analysis; type: cell-based
Target sequence in this assay (P03372 whole entry): as the sequence (P03372 whole entry, looked up) above
Target sequence in this assay (P40337 whole entry): as the sequence (P40337 whole entry, looked up) above

[10] = molecular target: Von Hippel-Lindau disease tumor suppressor/Elongin B/Elongin C (Homo sapiens, UniProt P40337); assay: Inhibition of VHL/Elongin B/Elogin C (unknown origin) using FAM-DEALA-Hyp-YIPD as substrate by fluorescence polarization assay; type: protein-complex assay
[11] = molecular target: T3, von Hippel-Lindau disease tumor suppressor/Androgen receptor (Homo sapiens, UniProt P10275+P40337); assay: PROTAC activity at VHL/AR in human LNCaP cells assessed as induction of AR degradation by Western blot analysis; type: cell-based
Target sequence in this assay (P10275 whole entry): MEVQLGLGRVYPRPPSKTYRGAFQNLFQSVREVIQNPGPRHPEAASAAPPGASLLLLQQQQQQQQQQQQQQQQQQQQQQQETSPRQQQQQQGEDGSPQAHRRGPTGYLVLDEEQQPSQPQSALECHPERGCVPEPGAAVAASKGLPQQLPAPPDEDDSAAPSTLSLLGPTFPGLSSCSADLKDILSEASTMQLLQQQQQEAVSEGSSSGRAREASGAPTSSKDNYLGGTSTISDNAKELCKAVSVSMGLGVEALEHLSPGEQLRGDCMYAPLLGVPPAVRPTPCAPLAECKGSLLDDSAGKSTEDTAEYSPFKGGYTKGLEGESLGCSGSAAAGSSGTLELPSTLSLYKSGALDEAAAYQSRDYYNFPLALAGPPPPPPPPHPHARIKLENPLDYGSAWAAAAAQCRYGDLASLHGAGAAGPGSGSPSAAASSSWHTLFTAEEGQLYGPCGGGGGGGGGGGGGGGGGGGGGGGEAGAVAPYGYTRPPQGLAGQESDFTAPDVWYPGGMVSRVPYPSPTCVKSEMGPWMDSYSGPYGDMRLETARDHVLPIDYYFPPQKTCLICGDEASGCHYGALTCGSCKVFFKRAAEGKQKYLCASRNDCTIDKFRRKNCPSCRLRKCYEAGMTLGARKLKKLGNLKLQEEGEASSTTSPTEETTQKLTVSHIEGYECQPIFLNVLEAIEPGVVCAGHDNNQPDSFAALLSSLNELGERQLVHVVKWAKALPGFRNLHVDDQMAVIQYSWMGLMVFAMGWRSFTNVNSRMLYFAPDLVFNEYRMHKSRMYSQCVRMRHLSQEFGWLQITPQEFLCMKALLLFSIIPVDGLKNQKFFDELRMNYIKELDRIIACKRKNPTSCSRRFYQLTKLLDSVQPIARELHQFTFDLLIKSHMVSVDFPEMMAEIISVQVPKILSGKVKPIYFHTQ
Target sequence in this assay (P40337 whole entry): as the sequence (P40337 whole entry, looked up) above

[12] = molecular target: T3, von Hippel-Lindau disease tumor suppressor/Androgen receptor; assay: PROTAC activity at VHL/AR in human LNCaP cells assessed as maximum degradation of AR at 75 uM incubated for 16 hrs by Western blot analysis relative to control; type: cell-based
Target sequence in this assay (P10275 whole entry, looked up): as the sequence (P10275 whole entry) above
Target sequence in this assay (P40337 whole entry, looked up): as the sequence (P40337 whole entry, looked up) above

[13] = molecular target: T3, von Hippel-Lindau disease tumor suppressor/Androgen receptor; assay: PROTAC activity at VHL/AR in human VCaP cells assessed as induction of AR degradation by Western blot analysis; type: cell-based
Target sequence in this assay (P10275 whole entry): as the sequence (P10275 whole entry) above
Target sequence in this assay (P40337 whole entry): as the sequence (P40337 whole entry, looked up) above

[14] = molecular target: T3, von Hippel-Lindau disease tumor suppressor/Androgen receptor; assay: PROTAC activity at VHL/AR-V7 in human 22Rv1 cells assessed as induction of AR degradation by Western blot analysis; type: cell-based
Target sequence in this assay (P10275 whole entry, looked up, change not shown): as the sequence (P10275 whole entry) above
Target sequence in this assay (P40337 whole entry, looked up, change not shown): as the sequence (P40337 whole entry, looked up) above

[15] = molecular target: T4, von Hippel-Lindau disease tumor suppressor/Bromodomain-containing protein 2 (Homo sapiens, UniProt P25440+P40337); assay: PROTAC activity at human VHL/BRD2 in human HeLa cells assessed as maximum degradation of BRD2 measured after 18 hrs by Western blot analysis relative to control; type: cell-based
Target sequence in this assay (P25440 whole entry, looked up): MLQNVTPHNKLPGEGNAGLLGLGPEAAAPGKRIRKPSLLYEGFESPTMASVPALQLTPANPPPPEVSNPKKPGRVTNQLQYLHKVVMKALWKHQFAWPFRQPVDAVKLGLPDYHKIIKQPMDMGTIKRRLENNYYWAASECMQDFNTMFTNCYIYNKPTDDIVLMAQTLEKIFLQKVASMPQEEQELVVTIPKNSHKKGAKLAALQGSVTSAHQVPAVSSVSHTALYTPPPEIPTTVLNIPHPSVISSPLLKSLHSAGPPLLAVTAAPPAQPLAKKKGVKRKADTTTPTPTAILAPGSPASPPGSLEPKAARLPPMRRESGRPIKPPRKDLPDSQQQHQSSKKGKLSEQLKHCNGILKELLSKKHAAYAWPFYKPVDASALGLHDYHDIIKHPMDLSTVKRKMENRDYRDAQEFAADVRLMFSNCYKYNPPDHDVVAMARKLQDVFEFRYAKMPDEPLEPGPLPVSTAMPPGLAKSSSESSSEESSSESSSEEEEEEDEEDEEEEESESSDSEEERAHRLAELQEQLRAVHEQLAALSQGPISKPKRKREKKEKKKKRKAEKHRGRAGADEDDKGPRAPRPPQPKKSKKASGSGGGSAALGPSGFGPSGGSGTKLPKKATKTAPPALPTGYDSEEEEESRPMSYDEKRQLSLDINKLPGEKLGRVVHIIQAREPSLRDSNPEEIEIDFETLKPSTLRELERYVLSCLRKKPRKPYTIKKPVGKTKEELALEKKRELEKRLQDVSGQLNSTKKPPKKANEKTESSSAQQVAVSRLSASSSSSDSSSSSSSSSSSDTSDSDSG
Target sequence in this assay (P40337 whole entry, looked up): as the sequence (P40337 whole entry, looked up) above

[16] = molecular target: T5, von Hippel-Lindau disease tumor suppressor/Bromodomain-containing protein 3 (Homo sapiens, UniProt Q15059+P40337); assay: PROTAC activity at human VHL/BRD3 in human HeLa cells assessed as […] incubated for 16 hrs by Western blot analysis; type: cell-based
Target sequence in this assay (Q15059 whole entry): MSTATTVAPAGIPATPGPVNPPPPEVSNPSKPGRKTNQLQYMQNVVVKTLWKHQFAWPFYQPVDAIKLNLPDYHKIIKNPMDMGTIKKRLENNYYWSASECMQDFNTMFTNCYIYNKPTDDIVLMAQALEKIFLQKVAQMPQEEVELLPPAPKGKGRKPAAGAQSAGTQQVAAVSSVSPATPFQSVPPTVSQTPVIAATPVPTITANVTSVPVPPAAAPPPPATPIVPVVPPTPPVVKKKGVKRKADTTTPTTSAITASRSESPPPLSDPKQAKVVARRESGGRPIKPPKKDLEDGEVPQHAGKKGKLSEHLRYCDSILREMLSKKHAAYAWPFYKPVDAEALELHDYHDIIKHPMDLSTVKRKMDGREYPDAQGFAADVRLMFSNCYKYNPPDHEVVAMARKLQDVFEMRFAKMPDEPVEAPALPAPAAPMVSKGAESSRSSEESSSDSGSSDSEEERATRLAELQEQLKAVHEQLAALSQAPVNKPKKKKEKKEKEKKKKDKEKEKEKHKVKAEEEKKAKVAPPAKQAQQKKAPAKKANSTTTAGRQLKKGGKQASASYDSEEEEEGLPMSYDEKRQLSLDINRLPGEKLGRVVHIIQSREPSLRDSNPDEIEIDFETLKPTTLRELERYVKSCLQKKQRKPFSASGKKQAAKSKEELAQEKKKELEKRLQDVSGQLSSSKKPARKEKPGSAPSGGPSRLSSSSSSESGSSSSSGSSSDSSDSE
Target sequence in this assay (P40337 whole entry): as the sequence (P40337 whole entry, looked up) above

[17] = molecular target: T5, von Hippel-Lindau disease tumor suppressor/Bromodomain-containing protein 3; assay: PROTAC activity at human VHL/BRD3 in human HeLa cells assessed as maximum degradation of BRD3 measured after 18 hrs by Western blot analysis relative to control; type: cell-based
[18] = molecular target: T4, von Hippel-Lindau disease tumor suppressor/Bromodomain-containing protein 2; assay: PROTAC activity at human VHL/BRD2 in human HeLa cells assessed as […] incubated for 16 hrs by Western blot analysis; type: cell-based
Target sequence in this assay (P25440 whole entry): as the sequence (P25440 whole entry, looked up) above
Target sequence in this assay (P40337 whole entry): as the sequence (P40337 whole entry, looked up) above

[19] = tested on: von Hippel-Lindau disease tumor suppressor/Bromodomain-containing protein 4; assay: PROTAC activity at human VHL/BRD4 in human HeLa cells assessed as maximum degradation of BRD4 measured after 18 hrs by Western blot analysis relative to control
[20] = PROTAC activity at human VHL/BRD4 in human HeLa cells assessed as degradation of BRD4 incubated for 16 hrs by Western blot analysis

T1 sequence (P40337 whole entry): as the sequence (P40337 whole entry, looked up) above
Chain of Von Hippel-Lindau disease tumor suppressor/Elongin B/Elongin C (P40337 whole entry, looked up): as above
Chain of von Hippel-Lindau disease tumor suppressor/Bromodomain-containing protein 4 (Homo sapiens, UniProt O60885+P40337) (P40337 whole entry, looked up, other chains not shown): as the sequence (P40337 whole entry, looked up) above

`Cc1cc(-c2scnc2C)c(C)cc1CNC(=O)[C@@H]1C[C@@H](O)CN1C(=O)[C@H](NC(=O)C1(C#N)CC1)C(C)(C)C` gave a Kd [1] of 528 nM.

`COc1cc(-c2scnc2C)c(F)cc1CNC(=O)[C@@H]1C[C@@H](O)CN1C(=O)[C@H](NC(=O)C1(F)CC1)C(C)(C)C` showed a Kd [1] of 134 nM.

For `CC(=O)N[C@H](C(=O)N1C[C@H](O)[C@H](F)[C@H]1C(=O)Nc1ccc(-c2scnc2C)cc1)C(C)(C)C`, the DC50 [2] was 1 nM.

For `COc1cc2c(Oc3ccc(NC(=O)C4(C(=O)Nc5ccc(F)cc5)CC4)cc3F)ccnc2cc1OCCCCOCCCCOCC(=O)N[C@@H](C(=O)N1C[C@H](O)C[C@H]1C(=O)NCc1ccc(-c2scnc2C)cc1)C(C)(C)C`, the Emax [3] was 97.4% and the DC50 [4] was 7.16 nM.

Compound `COc1cc(-c2scnc2C)cc(OC)c1CNC(=O)[C@@H]1C[C@@H](O)CN1C(=O)[C@H](NC(=O)C1(C#N)CC1)C(C)(C)C` has a Kd [1] of 6240 nM.

With `CC(=O)N[C@H](C(=O)N1C[C@H](O)C[C@H]1C(=O)N[C@@H](C)c1ccc(-c2scnc2C)cc1)C(C)(C)C` the Kd [5] was 63 nM and the IC50 [6] was 130 nM.

With `Cc1ncsc1-c1ccc([C@H](C)NC(=O)[C@@H]2C[C@@H](O)CN2C(=O)[C@@H](NC(=O)CCCCOc2ccc(CCNC(=O)c3ccc(C(=O)c4c(-c5ccc(O)cc5)sc5cc(O)ccc45)cc3)cc2)C(C)(C)C)cc1` the Emax [7] was 98% and the Emax [8] was 98%.

Work on `Cc1ncsc1-c1ccc([C@H](C)NC(=O)[C@@H]2C[C@@H](O)CN2C(=O)[C@@H](NC(=O)CCCCOc2ccc(/C=C/NC(=O)c3ccc(C(=O)c4c(-c5ccc(O)cc5)sc5cc(O)ccc45)cc3)cc2)C(C)(C)C)cc1` yielded a DC50 [9] of 10 nM and an Emax [8] greater than 95%.

In the case of `Cc1cc(-c2scnc2C)ccc1CNC(=O)[C@@H]1C[C@@H](O)CN1C(=O)[C@H](NC(=O)C1(C#N)CC1)C(C)(C)C`, the Kd [1] is reported as 149 nM.

With `Cc1cc(CC(=O)N2C[C@H](O)C[C@H]2C(=O)NCc2ccc(-c3ocnc3C)cc2)on1` the IC50 [10] was 12700 nM.

`Cc1cc([C@H](C(=O)N2C[C@H](S(=O)(=O)F)C[C@H]2C(=O)N[C@@H](CC(=O)N2CCC(C#Cc3ccc(C(=O)N[C@H]4C(C)(C)[C@H](Oc5ccc(C#N)c(Cl)c5)C4(C)C)cc3)CC2)c2ccc(-c3scnc3C)cc2)C(C)C)on1` gave a DC50 [11] of 212 nM and an Emax [12] of 59%.

In the case of `Cc1ncsc1-c1ccc([C@@H](C)NC(=O)[C@H]2C[C@H](O)CN2C(=O)[C@H](NC(=O)CCCCCNC(=O)COc2ccccc2-c2csc(N3CCOCC3)n2)C(C)(C)C)cc1`, the DC50 [13] is reported as 2000 nM and the DC50 [14] is reported as 370 nM.

Work on `Cc1ncsc1-c1ccc(CNC(=O)[C@@H]2C[C@@H](O)CN2C(=O)[C@H](NC(=O)C2(C#N)CC2)C(C)(C)C)cc1F` yielded a Kd [1] of 97 nM.

`Cc1ncsc1-c1ccc([C@H](C)NC(=O)[C@H]2C[C@H](O)CN2C(=O)[C@H](NC(=O)COCCOCCOCCNC(=O)C[C@@H]2N=C(c3ccc(Cl)cc3)c3c(sc(C)c3C)-n3c(C)nnc32)C(C)(C)C)cc1` showed an Emax [15] of 98%, a DC50 [16] of 100 nM and an Emax [17] of 100%. The DC50 [18] was 40 nM, the Emax [19] was 100% and the DC50 [20] was 3 nM.

`Cc1cc([C@H](C(=O)N2C[C@H](S(=O)(=O)F)C[C@H]2C(=O)N[C@@H](CC(=O)N2CCC(C#Cc3ccc(C(=O)N[C@H]4C(C)(C)[C@H](Oc5ccc(C#N)c(C(F)(F)F)c5)C4(C)C)cc3)CC2)c2ccc(-c3scnc3C)cc2)C(C)C)on1` showed a DC50 [11] of 527 nM and an Emax [12] of 54%.
